In BindingDB's records for doi:10.1016/s0960-894x(00)00138-4 (Berlex Biosciences, 2000):

biological target: Cationic trypsin (Bos taurus); test: In vitro inhibition of bovine trypsin.

Which Ki does the source give for `N=C(N)c1ccc(-n2ccc3ccc(NCc4cccc(C(=N)N)c4)cc32)cc1` [3-{1-[4-amino(imino)methylphenyl]-1H-6-indolylaminomethyl}phenyl-iminomethanamine] here?
Its Ki is 1620 nM.

How did the Ki turn out when `CN(C)C(=O)COc1ccc2c3ccccc3n(Cc3ccc4ccc(C(=N)N)cc4c3)c2c1` [2-[9-(7-Carbamimidoyl-naphthalen-2-ylmethyl)-9H-carbazol-2-yloxy]-N,N-dimethyl-acetamide] was run?
Its Ki is 90 nM.

Which Ki does the source give for `CCOC(=O)c1cc2ccc(OC3CCN(C(C)=N)CC3)cc2n1Cc1ccc2ccc(C(=N)N)cc2c1` [1-(7-Carbamimidoyl-naphthalen-2-ylmethyl)-6-[1-(1-imino-ethyl)-piperidin-4-yloxy]-1H-indole-2-carboxylic acid ethyl ester] here?
Its Ki is 20 nM.

With `N=C(N)c1ccc(-n2c3ccccc3c3ccc(OCc4ccc5ccc(C(=N)N)cc5c4)cc32)cc1` [7-[9-(4-Carbamimidoyl-phenyl)-9H-carbazol-2-yloxymethyl]-naphthalene-2-carboxamidine] as the molecule, how does the Ki read?
The Ki was 510 nM.

Which Ki does the source give for `N=C(N)c1ccc(-n2ccc3ccc(NC(=O)c4cccc(C(=N)N)c4)cc32)cc1` [3-Carbamimidoyl-N-[1-(4-carbamimidoyl-phenyl)-1H-indol-6-yl]-benzamide] here?
The Ki was 410 nM.

Which Ki does the source give for `N=C(N)c1ccc(-n2ccc3ccc(NCc4ccc5ccc(C(=N)N)cc5c4)cc32)cc1` [7-{[1-(4-Carbamimidoyl-phenyl)-1H-indol-6-ylamino]-methyl}-naphthalene-2-carboxamidine] here?
Its Ki is 300 nM.
